Test system: ASD phenotype 1 lymphoblastoid cell lines
Assay: NADH production in Phenotype Mammalian MicroArrays (PM-M, Biolog), ASD phenotype 1 cells
Assay type: cell-based, human
Conditions: FIG. 1 (AUC) and Table 1 (endpoint absorbance)
Protocol: From all subjects, blood samples were collected and lymphoblastoid cell lines generated. Briefly, tubes containing anticoagulant citrate dextrose (ACD) were used to collect blood samples via venipuncture, in order to ensure that the blood cells remained metabolically active. The tubes were kept at room temperature and processed within 24 hours.
Cell lines were obtained by immortalization of lymphocytes from blood samples using Epstein-Barr virus.
Energy production of cells was measured using commercially available Phenotype Mammalian MicroArrays (PM-Ms, Biolog, Hayward, Calif., USA).
The compound in each well was designed to be used by the cells, either as the sole energy source or as the metabolic effector influencing the utilization of an energy source (α-D-glucose) added in the cell suspension. […] Before plating, cell viability and number were assessed utilizing a BioRad cell counter and a trypan blue dye. The concentration of live cells required for plating was 4×10^5 cells/mL, corresponding to 20,000 cells per well in a volume of 50 μL. […] Cells were incubated for 48 h at 37° C. in 5% CO2, using the modified Biolog IF-M1 medium.
The Biolog IF-M1 medium was modified for plates PM-M1 to M4 by adding the following to 100 mL of Biolog IF-M1: 1.1 mL of 100× penicillin/streptomycin solution, 0.16 mL of 200 mM glutamine (final concentration 0.3 mM), and 5.3 mL of Fetal Bovine Serum (FBS, final concentration 5%). For plates PM-M5 to M8, 5.5 mM α-D-glucose will be added in place of FBS.
During the 48-hour incubation, the only energy source the cells had was the chemical in the well. After this first incubation, Biolog Redox Dye Mix MB was added (10 μL/well) and the plates were incubated under the same conditions for an additional 24 hours. As the cells metabolized the energy source, tetrazolium dye in the media was reduced, producing a purple color according to the amount of NADH generated.
For the last 24 hours of the experiment, the plates were incubated in the Omnilog system, which collects optical density readings every 15 minutes, generating 96 data-points for each well. The system also elaborated the kinetic curve for the metabolic reaction in each well and extrapolated parameters such as slope, highest point, endpoint, area under the curve (AUC), and lag.
At the end of the 24-hour incubation, the plates were analyzed utilizing a microplate reader with readings at 590 and 750 nm. The first value (A590) indicated the highest absorbance peak of the redox dye and the second value (A750) gave a measure of the background noise. The relative absorbance (A590-750) was calculated per well.

## FGF-1(aFGF): growth factor that selectively targets PI3K-Akt-mTOR by binding the receptor tyrosine kinase
  production of NADH in ASD phenotype 1 cells compared to TDs and non-phenotype 1 cells: significantly reduced

## IGF-I: insulin-like growth factor 1
  production of NADH in ASD phenotype 1 cells compared to TDs and non-phenotype 1 cells: no significant differences

## IL-1beta: Th1 cytokine
  production of NADH in ASD phenotype 1 cells compared to TDs and non-phenotype 1 cells: significantly lower

## IL-6: Th1 cytokine
  production of NADH in ASD phenotype 1 cells compared to TDs and non-phenotype 1 cells: significantly lower

## PDGF-AB: platelet-derived growth factor AB
  production of NADH in ASD phenotype 1 cells compared to TDs and non-phenotype 1 cells: no significant differences

## hGH (Somatotropin): growth factor that selectively targets PI3K-Akt-mTOR by binding the receptor tyrosine kinase
  production of NADH in ASD phenotype 1 cells compared to TDs and non-phenotype 1 cells: significantly reduced

From US20210169993A1, “TREATMENT OF A SUBTYPE OF ASD” (STALICLA SA, priority 2017, published 2021)
